According to ChEMBL document CHEMBL1201862, “PubChem BioAssay data set” (2004):
The source made the active and inactive calls.

Key:
[1] = target: Potassium voltage-gated channel subfamily KQT member 2 (Rattus norvegicus, UniProt O88943); test: KCNQ2 channel activators, analog series, SAR follow-up, automated patch clamp, KCNQ2-CHO cells (AID 493113); type: functional
[2] = system: H4; test: Luminescence Cell-Based Dose Response HTS to Identify Activators of 5'UTR Stem-Loop Driven Prion Protein mRNA Translation in H4 Neuroglioblastoma Cells. [Related pubchem assays: 1829 (Project Summary), 1814 (Primary HTS)]; type: functional; conditions: Homo sapiens
[3] = Luminescence Cell-Based Dose Response HTS to Identify Activators of Luciferase Translation or Activity in H4 […] Cells. [Related pubchem assays: 1829 (Project Summary), 1814 (Primary HTS)]; type: functional
[4] = target: T1, Cannabinoid receptor 1 (Homo sapiens, UniProt P21554); test: SAR analysis of antagonists of the Cannabinoid Receptor 1 using an Image-Based Assay - Set 2. [Related pubchem assays (depositor defined):AID2013, AID2026]; type: functional
[5] = target: Cytochrome P450 2D6 (Homo sapiens, UniProt P10635);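 further: CYP2D6 member of a cytochrome P450 panel assay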
[6] = target: T2, G-protein coupled receptor 35 (Homo sapiens, UniProt Q9HC97); test: SAR analysis of Antagonists of the GPR35 Receptor using an Image-Based Assay - Set 3. [Related pubchem assays (depositor defined):AID2013, AID2026]; type: functional
[7] = target: T1, Cannabinoid receptor 1; test: SAR analysis of agonists of the Cannabinoid Receptor 1 using an Image-Based Assay - Set 2. [Related pubchem assays (depositor defined):AID2013, AID2026]; type: functional
[8] = target: Photoreceptor-specific nuclear receptor (Homo sapiens, UniProt Q9Y5X4); test: NR2E3 inverse agonists, dose response, biochemical, TR-FRET (AID 463256); type: functional
[9] = system: Streptococcus; test: Group A Streptococcus viability loss, dose response, counter-screen for streptokinase expression inhibitor project, luminescence, BacTiterGlo (AID 1915); type: functional, organism-based;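 further: potency for reduction of bacterial viability or growth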
[10] = system: Streptococcus sp. 'group A'; test: growth inhibition of control SK(-) GAS strain, dose response, counter-screen for streptokinase expression inhibitor project, luminescence, kanamycin, BacTiterGlo, confirmation (AID 1900); type: functional, organism-based
[11] = target: T3, Streptokinase A (Streptococcus pyogenes serotype M1, UniProt P10520); test: S. pyogenes streptokinase expression inhibitors, potency, dose response, plasminogen activation absorbance, OD405 (AID 1914); type: functional, Streptococcus pyogenes M1 GAS;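 further: secreted streptokinase activity via plasminogen activation per viability signal from cell pellet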
T3 sequence (P10520 whole entry): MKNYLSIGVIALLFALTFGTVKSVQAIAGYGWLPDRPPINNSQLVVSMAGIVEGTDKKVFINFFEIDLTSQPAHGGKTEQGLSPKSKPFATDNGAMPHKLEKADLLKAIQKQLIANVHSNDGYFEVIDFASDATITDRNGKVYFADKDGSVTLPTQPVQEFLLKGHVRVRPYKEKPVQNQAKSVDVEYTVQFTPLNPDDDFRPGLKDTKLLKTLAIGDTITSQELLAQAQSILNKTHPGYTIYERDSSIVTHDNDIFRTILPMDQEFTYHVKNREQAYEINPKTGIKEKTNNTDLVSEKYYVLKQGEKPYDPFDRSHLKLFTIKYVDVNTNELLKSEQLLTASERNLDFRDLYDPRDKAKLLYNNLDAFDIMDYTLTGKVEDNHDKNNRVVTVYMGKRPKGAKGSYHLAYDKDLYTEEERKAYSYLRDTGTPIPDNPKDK

[12] = target: T4, Cannabinoid receptor 2 (Homo sapiens, UniProt P34972); test: SAR analysis of agonists of the Cannabinoid Receptor 2 using an Image-Based Assay. [Related pubchem assays (depositor defined):AID2013, AID2026]; type: functional
[13] = target: Peroxisome proliferator-activated receptor gamma/Nuclear receptor corepressor 2 (Homo sapiens, UniProt P37231+Q9Y618); test: Counterscreen for NR2E3 inverse agonists: TR-FRET-based biochemical high throughput dose response assay to identify inverse agonists of the interaction between peroxisome proliferator-activated receptor gamma (PPARg) and nuclear receptor co-repressor 2 (NCOR2).; type: functional
[14] = target: T5, G-protein coupled receptor 55 (Homo sapiens, UniProt Q9Y2T6); test: GPR55 antagonists blocking LPI-driven arrestin recruitment, primary screen, imaging, U2OS, beta-arrestin-GFP, LPI agonist (AID 2013); type: functional;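 further: antagonist potency measured as reduced agonist-driven arrestin aggregation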
[15] = target: T4, Cannabinoid receptor 2; test: SAR analysis of antagonists of the Cannabinoid Receptor 2 using an Image-Based Assay. [Related pubchem assays (depositor defined):AID2013, AID2026]; type: functional
[16] = target: T2, G-protein coupled receptor 35; test: SAR analysis of Agonists of the GPR35 Receptor using an Image-Based Assay - Set 2. [Related pubchem assays (depositor defined):AID2013, AID2026]; type: functional
[17] = target: Cytochrome P450 3A4 (Homo sapiens, UniProt P08684);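 further: CYP3A4 tested as one member of a cytochrome P450 panel screen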
[18] = target: T5, G-protein coupled receptor 55; test: GPR55 antagonist potency of analogs, SAR follow-up, imaging, U2OS, beta-arrestin-GFP, LPI agonist, set 2 (AID 2820); type: functional
[19] = growth suppression of beta-catenin-knockout colon cells, dose response, cell-based, HCT116, human colon tumor (AID 1045); type: functional;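 further: HCT116 colon tumor cells with beta catenin knocked out; cells exposed to compound for 60 hours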
[20] = target: Sphingosine 1-phosphate receptor 1 (Homo sapiens, UniProt P21453); test: Fluorescence-based counterscreen assay for S1P4 agonists: Cell-based dose response high throughput screening assay to identify agonists of the Sphingosine 1-Phosphate Receptor 1 (S1P1). [Related pubchem assays (depositor defined):AID1509, AID1523, AID1801, AID463107, AID463118, AID463119, AID463122, AID463123, AID463129, AID463225, AID504400, AID504460]; type: functional
[21] = target: T6, Sphingosine 1-phosphate receptor 4 (Homo sapiens, UniProt O95977); test: Fluorescence dose response cell-based high throughput screening assay for agonists of the Sphingosine 1-Phosphate Receptor 4 (S1P4). [Related pubchem assays: 1509 (Primary screen.), 1523 (Confirmation screen in triplicates.)]; type: functional
T6 sequence (O95977 whole entry): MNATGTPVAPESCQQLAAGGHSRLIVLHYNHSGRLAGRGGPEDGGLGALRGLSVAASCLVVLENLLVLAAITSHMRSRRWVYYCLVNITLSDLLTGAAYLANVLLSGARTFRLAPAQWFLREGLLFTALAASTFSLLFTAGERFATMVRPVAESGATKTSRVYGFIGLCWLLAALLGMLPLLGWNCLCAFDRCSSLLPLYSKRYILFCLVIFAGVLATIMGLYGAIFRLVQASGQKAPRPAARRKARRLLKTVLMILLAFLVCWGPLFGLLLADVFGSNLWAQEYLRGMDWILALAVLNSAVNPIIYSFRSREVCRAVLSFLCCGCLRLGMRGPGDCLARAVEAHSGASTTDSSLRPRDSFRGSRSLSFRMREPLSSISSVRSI

[22] = growth suppression of PTEN-null colon cells, dose response, cell-based, HCT116 PTEN knockout (AID 1047); type: functional;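 further: HCT116 colon tumor cells with PTEN knocked out; cells exposed to compound for 60 hours before readout; potency for loss of cell viability measured by luminescence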
[23] = target: Protein Wnt-3a (Mus musculus, UniProt P27467); test: Wnt3a-driven reporter signaling inhibition, dose response, selectivity assay for Gli-SUFU antagonist project, Wnt-LIGHT cells, luminescence (AID 651570); type: functional; conditions: read-out: IC50_Mean;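 further: Wnt-LIGHT reporter cells stimulated with conditioned medium from Wnt3a-producing cells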
[24] = cytotoxicity in HEK-293T cells, dose response, cytotoxicity control for TCR NF-kB inhibitor project, luminescence, T-cell screen hits (AID 489026); type: functional, cell-based;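 further: cells exposed to compound about 14 hours before the viability readout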

T5 sequence (Q9Y2T6 whole entry): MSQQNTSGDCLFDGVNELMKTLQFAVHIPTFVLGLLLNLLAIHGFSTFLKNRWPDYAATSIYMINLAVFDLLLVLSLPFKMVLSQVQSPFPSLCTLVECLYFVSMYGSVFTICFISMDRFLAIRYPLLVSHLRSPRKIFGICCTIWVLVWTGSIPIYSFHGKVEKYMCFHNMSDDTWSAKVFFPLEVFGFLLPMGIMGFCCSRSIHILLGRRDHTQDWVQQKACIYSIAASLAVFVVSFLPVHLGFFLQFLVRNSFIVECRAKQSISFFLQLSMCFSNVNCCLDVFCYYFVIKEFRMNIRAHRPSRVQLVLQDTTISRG
T4 sequence (P34972 whole entry): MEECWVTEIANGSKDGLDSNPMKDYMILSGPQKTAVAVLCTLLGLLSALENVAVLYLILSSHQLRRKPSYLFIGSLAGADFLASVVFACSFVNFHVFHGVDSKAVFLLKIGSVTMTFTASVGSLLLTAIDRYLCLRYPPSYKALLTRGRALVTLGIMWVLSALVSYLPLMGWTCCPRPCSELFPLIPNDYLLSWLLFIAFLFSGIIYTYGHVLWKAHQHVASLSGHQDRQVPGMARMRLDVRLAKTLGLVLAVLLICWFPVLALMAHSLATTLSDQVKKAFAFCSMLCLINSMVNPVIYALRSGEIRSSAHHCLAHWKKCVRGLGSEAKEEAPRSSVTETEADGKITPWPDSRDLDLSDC
T1 sequence (P21554 whole entry): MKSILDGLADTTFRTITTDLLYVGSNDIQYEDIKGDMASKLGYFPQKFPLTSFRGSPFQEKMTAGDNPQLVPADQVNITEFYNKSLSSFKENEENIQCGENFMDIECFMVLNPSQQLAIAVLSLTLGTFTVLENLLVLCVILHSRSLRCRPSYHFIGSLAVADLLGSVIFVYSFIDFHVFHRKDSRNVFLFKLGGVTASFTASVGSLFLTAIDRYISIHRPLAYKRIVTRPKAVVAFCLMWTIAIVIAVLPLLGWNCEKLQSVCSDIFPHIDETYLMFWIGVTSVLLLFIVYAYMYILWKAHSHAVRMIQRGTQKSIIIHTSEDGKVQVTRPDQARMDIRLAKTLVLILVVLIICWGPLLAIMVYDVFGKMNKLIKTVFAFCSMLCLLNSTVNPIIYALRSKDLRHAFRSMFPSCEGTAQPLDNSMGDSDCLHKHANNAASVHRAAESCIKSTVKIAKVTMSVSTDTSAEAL
T2 sequence (Q9HC97 whole entry): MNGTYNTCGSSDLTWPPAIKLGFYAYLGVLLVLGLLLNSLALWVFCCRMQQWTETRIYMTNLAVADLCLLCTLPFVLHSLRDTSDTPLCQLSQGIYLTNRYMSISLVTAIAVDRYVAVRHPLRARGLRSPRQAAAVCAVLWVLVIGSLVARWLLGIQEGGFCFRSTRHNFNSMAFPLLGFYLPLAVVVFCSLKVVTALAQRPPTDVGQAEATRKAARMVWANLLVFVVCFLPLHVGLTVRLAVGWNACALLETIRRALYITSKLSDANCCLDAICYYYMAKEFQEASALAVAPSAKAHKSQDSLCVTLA
Chain of Photoreceptor-specific nuclear receptor (Q9Y5X4 whole entry): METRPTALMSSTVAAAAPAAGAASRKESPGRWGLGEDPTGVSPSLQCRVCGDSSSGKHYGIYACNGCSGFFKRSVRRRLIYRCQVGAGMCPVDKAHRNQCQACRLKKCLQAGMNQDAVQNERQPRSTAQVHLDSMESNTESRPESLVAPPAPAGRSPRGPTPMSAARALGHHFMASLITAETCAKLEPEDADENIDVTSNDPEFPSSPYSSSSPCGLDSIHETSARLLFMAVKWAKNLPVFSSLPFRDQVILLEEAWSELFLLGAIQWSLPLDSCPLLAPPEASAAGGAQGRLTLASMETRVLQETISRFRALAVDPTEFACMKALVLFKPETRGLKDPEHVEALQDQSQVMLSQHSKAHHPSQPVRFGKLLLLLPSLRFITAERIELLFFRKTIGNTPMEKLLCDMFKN
Chain of Potassium voltage-gated channel subfamily KQT member 2 (O88943 whole entry): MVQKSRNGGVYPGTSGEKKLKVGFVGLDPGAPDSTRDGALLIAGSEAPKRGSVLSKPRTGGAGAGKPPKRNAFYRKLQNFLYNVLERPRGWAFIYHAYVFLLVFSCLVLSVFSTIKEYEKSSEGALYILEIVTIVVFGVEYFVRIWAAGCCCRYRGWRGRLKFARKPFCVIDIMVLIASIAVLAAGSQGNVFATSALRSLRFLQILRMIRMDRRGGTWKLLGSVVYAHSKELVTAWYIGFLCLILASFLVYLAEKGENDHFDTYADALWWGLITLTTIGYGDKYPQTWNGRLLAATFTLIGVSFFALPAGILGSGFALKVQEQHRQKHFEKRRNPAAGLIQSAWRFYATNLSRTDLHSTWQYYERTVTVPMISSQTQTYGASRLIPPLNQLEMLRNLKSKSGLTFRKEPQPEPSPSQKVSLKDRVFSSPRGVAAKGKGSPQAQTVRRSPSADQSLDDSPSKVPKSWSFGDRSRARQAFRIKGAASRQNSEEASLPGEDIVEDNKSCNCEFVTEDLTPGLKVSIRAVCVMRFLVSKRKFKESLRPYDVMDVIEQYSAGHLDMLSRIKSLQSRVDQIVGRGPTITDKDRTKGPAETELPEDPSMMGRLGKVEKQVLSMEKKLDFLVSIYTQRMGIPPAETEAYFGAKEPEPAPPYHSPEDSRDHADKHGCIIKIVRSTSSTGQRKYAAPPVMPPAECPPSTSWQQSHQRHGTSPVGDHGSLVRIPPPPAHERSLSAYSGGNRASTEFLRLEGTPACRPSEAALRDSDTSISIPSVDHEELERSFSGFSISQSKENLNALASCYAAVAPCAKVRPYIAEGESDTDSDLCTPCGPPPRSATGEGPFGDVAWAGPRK
Chain of Protein Wnt-3a (P27467 whole entry): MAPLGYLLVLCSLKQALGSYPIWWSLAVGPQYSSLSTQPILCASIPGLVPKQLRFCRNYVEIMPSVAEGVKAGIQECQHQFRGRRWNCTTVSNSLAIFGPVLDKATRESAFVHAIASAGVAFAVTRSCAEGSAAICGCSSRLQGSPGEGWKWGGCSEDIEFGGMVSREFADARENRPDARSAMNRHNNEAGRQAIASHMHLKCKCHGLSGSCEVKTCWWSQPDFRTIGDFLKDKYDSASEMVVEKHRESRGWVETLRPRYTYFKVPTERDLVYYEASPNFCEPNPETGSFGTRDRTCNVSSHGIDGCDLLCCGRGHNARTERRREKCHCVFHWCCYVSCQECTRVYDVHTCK
Chain of Cytochrome P450 2D6 (P10635 whole entry): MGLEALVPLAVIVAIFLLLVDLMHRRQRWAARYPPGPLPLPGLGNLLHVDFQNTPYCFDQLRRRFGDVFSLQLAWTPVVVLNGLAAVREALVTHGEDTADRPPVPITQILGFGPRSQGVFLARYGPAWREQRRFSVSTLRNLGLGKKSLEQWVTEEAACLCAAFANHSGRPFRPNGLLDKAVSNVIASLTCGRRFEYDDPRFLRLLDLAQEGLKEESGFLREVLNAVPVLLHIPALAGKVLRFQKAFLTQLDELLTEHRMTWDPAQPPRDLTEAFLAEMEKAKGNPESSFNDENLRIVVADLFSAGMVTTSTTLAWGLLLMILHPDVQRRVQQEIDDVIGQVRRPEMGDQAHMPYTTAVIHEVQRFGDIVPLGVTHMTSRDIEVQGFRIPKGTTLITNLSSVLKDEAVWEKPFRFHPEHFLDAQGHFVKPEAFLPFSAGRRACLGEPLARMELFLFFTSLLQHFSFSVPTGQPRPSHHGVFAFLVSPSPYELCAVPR
Chain of Cytochrome P450 3A4 (P08684 whole entry): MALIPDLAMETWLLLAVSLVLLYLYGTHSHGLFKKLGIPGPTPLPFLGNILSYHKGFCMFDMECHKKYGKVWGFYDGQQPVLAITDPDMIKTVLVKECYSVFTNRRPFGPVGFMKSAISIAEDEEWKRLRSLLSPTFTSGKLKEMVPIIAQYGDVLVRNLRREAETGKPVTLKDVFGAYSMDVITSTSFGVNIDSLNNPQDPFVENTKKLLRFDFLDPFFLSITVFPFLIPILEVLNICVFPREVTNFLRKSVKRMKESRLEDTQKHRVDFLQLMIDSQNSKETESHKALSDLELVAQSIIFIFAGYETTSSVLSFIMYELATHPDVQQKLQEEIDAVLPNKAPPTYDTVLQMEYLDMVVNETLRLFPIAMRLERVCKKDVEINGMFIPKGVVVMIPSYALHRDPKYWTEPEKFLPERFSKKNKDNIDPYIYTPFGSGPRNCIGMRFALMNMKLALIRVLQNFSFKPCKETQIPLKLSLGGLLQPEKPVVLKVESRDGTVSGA
Chain of Sphingosine 1-phosphate receptor 1 (P21453 whole entry): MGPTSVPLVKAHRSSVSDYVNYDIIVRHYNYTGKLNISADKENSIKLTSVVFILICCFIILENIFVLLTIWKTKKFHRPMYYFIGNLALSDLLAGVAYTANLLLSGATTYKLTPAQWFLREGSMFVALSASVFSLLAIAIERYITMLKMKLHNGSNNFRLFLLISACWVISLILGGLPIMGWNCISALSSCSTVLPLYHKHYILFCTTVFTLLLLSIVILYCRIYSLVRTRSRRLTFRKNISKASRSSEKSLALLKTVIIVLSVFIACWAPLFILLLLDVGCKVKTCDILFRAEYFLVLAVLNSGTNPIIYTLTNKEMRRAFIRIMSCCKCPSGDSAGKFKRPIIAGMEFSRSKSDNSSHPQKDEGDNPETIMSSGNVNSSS

With `CC(C)c1ccc(NC(=O)C2CC3CCC2C3)cc1` (centres undefined) the EC50 [1] was 0.72 µM (active), the EC50 [2] was 65.4 µM (active) and the EC50 [3] was 0.432 µM (active).

For `Cc1nnc(-c2cccc(Br)c2)c2cn(-c3ccc(Br)cc3)nc12`, the IC50 [4] was 13.9 µM (inactive), the AC50 [5] was 12.6 µM (inconclusive) and the IC50 [6] was > 32 µM (inactive). The EC50 [7] was > 32 µM (inactive), the IC50 [8] was 18.8 µM (not active) and the EC50 [9] was 28.4 µM (active). The EC50 [10] was 3.53 µM (active), the EC50 [11] was 19.2 µM (active) and the EC50 [12] was > 32 µM (inactive). For the same compound, the IC50 [13] was 14.5 µM (not active), the IC50 [14] was 0.915 µM (active) and the IC50 [15] was > 32 µM (inactive). The EC50 [16] was > 32 µM (inactive), the AC50 [17] was “inconclusive” and the IC50 [18] was 0.893 µM (active).

In the case of `COc1ccc(-c2c(C#N)c(N)nc3c2CCc2ccccc2-3)cc1OC`, the EC50 [19] is reported as 5.59 µM (active), the EC50 [20] is reported as > 49.8 µM (inactive) and the EC50 [21] is reported as 43.6 µM (not active). For the same compound, the EC50 [22] was 5.19 µM (active), the IC50 [23] was 17.9 µM (active) and the IC50 [24] was 38.1 µM (inactive).
